Measurements taken from patent US8377963B2, “Insulin-regulated aminopeptidase (IRAP) inhibitors and uses thereof” (Howard Florey Institute, priority 2007, dated 2013).

Test system: rats
Experiment: Spontaneous alternation plus maze
Assay type: in vivo, rat
Settings: for Spontaneous Alternation Score (%): rats, n=8/group
Experimental: All experiments were performed according to the National Health and Medical Research Council of Australia “Code of practise for the care and use of animals for scientific purposes”. Male Spraque Dawley rats, (250-270 g) are housed individually and given water and standard rat chow ad libitum. On the day of surgery, the rats were anaesthetized with 5% isofluorane, placed in a stereotaxic frame and maintained on 2% isofluorane for the duration of the cannula implantation procedure. The rats were stereotaxically implanted with chronic indwelling cannula (Plastics One) into the cerebral lateral ventricles using the following flat skull coordinates 0.8 mm posterior to Bregma, 1.55 mm lateral to midline and 3.5 mm ventral to the dura. The cannula was then secured to the skull with stainless steel screws and dental cement. Seven days following surgery, proper cannula placement was verified by a bolus injection of angiotensin II (1 nmol/μl).
The plus maze was composed of four arms with each arm measuring 75×10×20 cm. The floor and walls of the central platform and the floors of the arms were made of black plastic. Spontaneous alternation testing was conducted by placing the rat on the center platform of the maze and allowing 20 min of unimpeded exploration. The number and sequence of arm entries were recorded for calculation of a percent alternation score. An alternation consisted of 4 different arm choices of 5 consecutive arm entries. A ⅘ alternation score was computed by dividing the number of observed alternations in overlapping quintuplets by the number of possible alternations and multiplying the quotient by 100.

CCOC(=O)C1=C(NC(C)=O)Oc2cc(O)ccc2C1c1cccnc1 (stereo not drawn) [Compound 2, Ethyl 2-(acetylamino)-7-hydroxy-4-pyridin-3-yl-4H-chromene-3-carboxylate]
Spontaneous Alternation Score (%) (0.1 nmol intracerebroventricularly): 73.70 ± 3.14 %
spontaneous alternation scores compared to vehicle treated control rats (0.1 nmole, p<0.01): significantly enhanced spontaneous alternation scores
Spontaneous Alternation Score (%) (1 nmol intracerebroventricularly): 64.34 ± 2.49%
